This is an account of results in US11076595B2, “1-(n,n-disubstituted carbamoyl) 4-(substituted sulfonyl)triazolin-5-one derivative, 4-(n,n-disubstituted carbamoyl) 1-(substituted sulfonyl)triazolin-5-one derivative, and herbicide containing said derivative as active ingredient” (HOKKO CHEMICAL INDUSTRY CO., LTD., priority 2017, dated 2021).

The test system of data set [1] is Chenopodium album. Nature of the data set: Test Example 4: herbicidal effect test by foliage treatment in upland field. The class given is in vivo. As to conditions: upland field foliage treatment 7 days after sowing; 120 g/10a; evaluated 14 days after treatment. In outline: (§1)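 Suppression rate (%) derives from mean plant dry weight in treated versus untreated plots, measured 14 days after spraying, with two replications per plot. The emulsifiable concentrate was applied 7 days after sowing at 120 g active ingredient per 10 are.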

For data set [2], the system named is Amaranthus viridis. Described as above. It is filed as in vivo. The conditions noted are these: upland field foliage treatment 7 days after sowing; 120 g/10a; evaluated 14 days after treatment. In outline:
as §1

For data set [3], the system named is crabgrass. The data set is described as above. The conditions noted are these: upland field foliage treatment 7 days after sowing; 120 g/10a; evaluated 14 days after treatment. The class given is in vivo. Put shortly: as §1
Data set [4] concerns Echinochloa crus-galli. The description is as above. The class given is in vivo. As to conditions: upland field foliage treatment 7 days after sowing; 120 g/10a; evaluated 14 days after treatment. In outline:
as §1

In data set [5] the test system is Scirpus juncoides. Nature of the data set: Test Example 1: herbicidal effect test by soil treatment in paddy field. The class given is in vivo. As to conditions: 120 g/10a, paddy soil treatment just after sowing, 14 days after treatment. In outline: (§2)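 Weed suppression (%) was calculated at 14 days from mean plant dry weight relative to untreated pots, with duplicate pots per rate. The compound went into the flood water as a diluted emulsifiable concentrate (120 g a.i./10 are) immediately after sowing seeds 0–1 cm deep. Pots held ~3 cm water in a glasshouse.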

Data set [6] deals with Lindernia pyxidaria. Described as above. The class given is in vivo. As to conditions: 120 g/10a, paddy soil treatment just after sowing, 14 days after treatment. In outline:
as §2

The subject of data set [7] is Echinochloa crus-galli. Described as above. The class given is in vivo. The conditions noted are these: 120 g/10a, paddy soil treatment just after sowing, 14 days after treatment. In outline: as §2
The test system of data set [8] is Monochoria vaginalis. Described as above. It is filed as in vivo. As to conditions: 120 g/10a, paddy soil treatment just after sowing, 14 days after treatment. Put shortly:
as §2

The subject of data set [9] is Scirpus juncoides. Nature of the data set: Test Example 2: herbicidal effect test by treatment during growing period in paddy field. The class given is in vivo. As to conditions: treatment 7 days after sowing, 120 g/10a, evaluated 14 days after treatment. In outline: (§3)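 Paddy soil in Wagner pots, flooded to ~3 cm; 30 seeds per species sown 0–1 cm deep, greenhouse-grown. Emulsifiable concentrate diluted in water and dripped into flood water 7 days after sowing at 120 g active ingredient per 10 are. Dry-weight suppression vs untreated assessed 14 days post-treatment, two replicates.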

The test system of data set [10] is Lindernia pyxidaria. The description is as above. As to conditions: treatment 7 days after sowing, 120 g/10a, evaluated 14 days after treatment. It is filed as in vivo. In outline: as §3
The subject of data set [11] is Echinochloa crus-galli. The data set is described as above. The class given is in vivo. As to conditions: treatment 7 days after sowing, 120 g/10a, evaluated 14 days after treatment. In outline: as §3
In data set [12] the test system is Monochoria vaginalis. The data set is described as above. The class given is in vivo. The conditions noted are these: treatment 7 days after sowing, 120 g/10a, evaluated 14 days after treatment. Put shortly: as §3
The test system of data set [13] is Chenopodium album. Nature of the data set: Test Example 3: herbicidal effect test by soil treatment in upland field. As to conditions: upland field soil treatment 1 day after sowing; 120 g/10a; evaluated 14 days after treatment. The class given is in vivo. Put shortly: (§4)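 Pre-emergence soil treatment: 20 seeds of each weed were mixed into the top 1 cm of alluvial field soil in 36 cm^2 pots. One day after sowing, a water-diluted emulsifiable concentrate was sprayed on the soil at 100 liter per 10 are (120 g active ingredient per 10 are), with two replications. Suppression (%) was derived from dry weight versus untreated plots after 14 days.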

Data set [14] concerns Amaranthus viridis. The description is as above. It is filed as in vivo. As to conditions: upland field soil treatment 1 day after sowing; 120 g/10a; evaluated 14 days after treatment. Put shortly: as §4
The test system of data set [15] is crabgrass. The data set is described as above. It is filed as in vivo. The conditions noted are these: upland field soil treatment 1 day after sowing; 120 g/10a; evaluated 14 days after treatment. Put shortly: as §4
The subject of data set [16] is Echinochloa crus-galli. Described as above. The class given is in vivo. As to conditions: upland field soil treatment 1 day after sowing; 120 g/10a; evaluated 14 days after treatment. Put shortly: as §4

As for `CCN(CC)C(=O)n1ncn(S(C)(=O)=O)c1=O` [Compound 1-1], the melting point lay in the range of 81.7 to 85.3 °C.
`CC(C)N(C(=O)n1ncn(S(=O)(=O)C(C)C)c1=O)c1ccccc1` [Compound 1-54]: the melting point was 92 to 94 °C. Also, the “herbicidal effect (weed suppression rate), Chenopodium album” value (“herbicidal effect … Chenopodium album” for short) in the data set on Chenopodium album [1] was found to be 80%. The “herbicidal effect (weed suppression rate), Amaranthus viridis” value (“herbicidal effect … Amaranthus viridis” below) with Amaranthus viridis [2] worked out at 90%. In the data set with crabgrass [3], the “herbicidal effect (weed suppression rate), Crabgrass” value (“herbicidal effect … Crabgrass” below) amounted to 90%. The “herbicidal effect (weed suppression rate), Echinochloa crus-galli” value (shortened to “herbicidal effect … Echinochloa crus-galli”) in the data set with Echinochloa crus-galli [4] is 80%. For the same molecule, the “weed suppression rate, Scirpus juncoides” value in the data set on Scirpus juncoides [5] is recorded as 90%. Further, the “weed suppression rate, Lindemia pyxidaria” value in the data set on Lindernia pyxidaria [6] is listed as 80%. In addition, the “weed suppression rate, Echinochloa crus-galli” value with Echinochloa crus-galli [7] came out at 90%. Besides, the “weed suppression rate, Monochoria vaginalis” value in the data set with Monochoria vaginalis [8] came out at 80%. In the data set on Scirpus juncoides [9], the “weed suppression rate, Scirpus juncoides” value is listed as 90%. Moreover, the “weed suppression rate, Lindemia pyxidaria” value with Lindernia pyxidaria [10] stood at 80%. For the same molecule, the “weed suppression rate, Echinochloa crus-galli” value in the data set with Echinochloa crus-galli [11] is listed as 90%. The “weed suppression rate, Monochoria vaginalis” value in the data set on Monochoria vaginalis [12] is listed as 80%.
With `CC(C)N(C(=O)n1ncn(S(=O)(=O)C2CC2)c1=O)c1ccc(F)cc1F` [Compound 1-150, 4-cyclopropylsulfonyl-N-(2,4-difluorophenyl)-N-isopropyl-5-oxo-1,2,4-triazole-1-carboxamide], the melting point fell in the range of 144 to 146 °C. Besides, in the data set on Chenopodium album [13], the “herbicidal effect … Chenopodium album” value came out at 100%. The “herbicidal effect … Amaranthus viridis” value with Amaranthus viridis [14] is 90%. For the same molecule, the “herbicidal effect … Crabgrass” value in the data set with crabgrass [15] is given as 100%. For the same molecule, the “herbicidal effect … Echinochloa crus-galli” value in the data set with Echinochloa crus-galli [16] is recorded as 100%. Moreover, in the data set with Chenopodium album [1], the “herbicidal effect … Chenopodium album” value came to 80%. The “herbicidal effect … Amaranthus viridis” value in the data set on Amaranthus viridis [2] turned out to be 90%. Moreover, the “herbicidal effect … Crabgrass” value in the data set on crabgrass [3] is given as 90%. In addition, the “herbicidal effect … Echinochloa crus-galli” value in the data set with Echinochloa crus-galli [4] was 80%. For the same molecule, the “weed suppression rate, Scirpus juncoides” value in the data set with Scirpus juncoides [5] was determined as 100%. Moreover, the “weed suppression rate, Lindemia pyxidaria” value in the data set with Lindernia pyxidaria [6] is 100%. Further, the “weed suppression rate, Echinochloa crus-galli” value in the data set with Echinochloa crus-galli [7] is listed as 100%. In addition, in the data set with Monochoria vaginalis [8], the “weed suppression rate, Monochoria vaginalis” value is on record as 100%. For the same molecule, the “weed suppression rate, Scirpus juncoides” value in the data set on Scirpus juncoides [9] is listed as 90%. Besides, the “weed suppression rate, Lindemia pyxidaria” value with Lindernia pyxidaria [10] is 90%. Also, in the data set on Echinochloa crus-galli [11], the “weed suppression rate, Echinochloa crus-galli” value is 100%. For the same molecule, the “weed suppression rate, Monochoria vaginalis” value in the data set with Monochoria vaginalis [12] is given as 90%.
The molecule `CC(C)N(C(=O)n1ncn(S(=O)(=O)C2CC2)c1=O)c1ccccc1` [Compound 1-168] yielded a melting point of 102 to 104 °C. Moreover, the “weed suppression rate, Scirpus juncoides” value with Scirpus juncoides [5] was found to be 90%. The “weed suppression rate, Lindemia pyxidaria” value with Lindernia pyxidaria [6] was 80%. Also, the “weed suppression rate, Echinochloa crus-galli” value in the data set with Echinochloa crus-galli [7] is reported as 90%. In the data set on Monochoria vaginalis [8], the “weed suppression rate, Monochoria vaginalis” value stood at 80%. Also, the “weed suppression rate, Scirpus juncoides” value with Scirpus juncoides [9] came out at 90%. For the same molecule, the “weed suppression rate, Lindemia pyxidaria” value in the data set on Lindernia pyxidaria [10] is reported as 80%. In addition, the “weed suppression rate, Echinochloa crus-galli” value in the data set with Echinochloa crus-galli [11] amounted to 90%. Moreover, in the data set on Monochoria vaginalis [12], the “weed suppression rate, Monochoria vaginalis” value is given as 80%.
On to `Cc1cc(C)c(S(=O)(=O)n2cnn(C(=O)N(c3ccc(F)c(F)c3F)C(C)C)c2=O)c(C)c1` [Compound 1-899], for which the “herbicidal effect … Chenopodium album” value came to 60% in the data set with Chenopodium album [13] and 80% in the data set with Chenopodium album [1]. For the same molecule, the “herbicidal effect … Amaranthus viridis” value in the data set with Amaranthus viridis [14] turned out to be 90%; with Amaranthus viridis [2], 100%. In addition, the “herbicidal effect … Crabgrass” value in the data set on crabgrass [15] was found to be 80%; in the data set with crabgrass [3], 100%. The “herbicidal effect … Echinochloa crus-galli” value in the data set on Echinochloa crus-galli [16] was 80%; in the data set on Echinochloa crus-galli [4], 100%. In addition, the “weed suppression rate, Scirpus juncoides” value in the data set with Scirpus juncoides [5] and in the data set with Scirpus juncoides [9] was 100% throughout. For the same molecule, the “weed suppression rate, Lindemia pyxidaria” value was determined as 100% in the data set on Lindernia pyxidaria [6] and 80% in the data set on Lindernia pyxidaria [10]. Moreover, the “weed suppression rate, Echinochloa crus-galli” value with Echinochloa crus-galli [7] and with Echinochloa crus-galli [11] was 100% throughout. The “weed suppression rate, Monochoria vaginalis” value came out at 90% with Monochoria vaginalis [8] and 100% with Monochoria vaginalis [12].
On to `CCN(CC)C(=O)n1ncn(S(=O)(=O)Cc2ccccc2)c1=O` [Compound 1-968], for which the melting point lay within 115.8 to 118.6 °C.
On to `CC(C)N(C(=O)n1ncn(S(=O)(=O)N(C)C)c1=O)c1ccc(F)cc1` [Compound 1-1095], for which the “herbicidal effect … Chenopodium album” value with Chenopodium album [13] and in the data set with Chenopodium album [1] was 80% throughout. The “herbicidal effect … Amaranthus viridis” value with Amaranthus viridis [14] and in the data set with Amaranthus viridis [2] was 90% in each case. In addition, the “herbicidal effect … Crabgrass” value with crabgrass [15] and in the data set on crabgrass [3] was 90% in each case. In addition, the “herbicidal effect … Echinochloa crus-galli” value with Echinochloa crus-galli [16] and in the data set with Echinochloa crus-galli [4] was 80% throughout. The “weed suppression rate, Scirpus juncoides” value in the data set on Scirpus juncoides [5] and in the data set on Scirpus juncoides [9] was 90% throughout. Also, the “weed suppression rate, Lindemia pyxidaria” value with Lindernia pyxidaria [6] and in the data set with Lindernia pyxidaria [10] was 80% in each case. Moreover, the “weed suppression rate, Echinochloa crus-galli” value in the data set with Echinochloa crus-galli [7] and with Echinochloa crus-galli [11] was 90% throughout. For the same molecule, the “weed suppression rate, Monochoria vaginalis” value with Monochoria vaginalis [8] and in the data set with Monochoria vaginalis [12] was 80% in each case.
As for `CC(C)N(C(=O)n1ncn(S(=O)(=O)N(C)C)c1=O)c1ccc(F)cc1F` [Compound 1-1103], the figures for the “herbicidal effect … Chenopodium album” value in the data set with Chenopodium album [13] and in the data set on Chenopodium album [1] were 60% and 80%, respectively. In addition, the “herbicidal effect … Amaranthus viridis” value in the data set with Amaranthus viridis [14] worked out at 60%; with Amaranthus viridis [2], 90%. In addition, the “herbicidal effect … Crabgrass” value in the data set on crabgrass [15] is 100%; in the data set with crabgrass [3] it was 90%. Further, the “herbicidal effect … Echinochloa crus-galli” value with Echinochloa crus-galli [16] stood at 100%; in the data set on Echinochloa crus-galli [4], 80%. Further, the “weed suppression rate, Scirpus juncoides” value in the data set on Scirpus juncoides [5] and in the data set on Scirpus juncoides [9] was 90% each time. For the same molecule, the “weed suppression rate, Lindemia pyxidaria” value in the data set on Lindernia pyxidaria [6] and in the data set on Lindernia pyxidaria [10] was 80% throughout. In addition, the “weed suppression rate, Echinochloa crus-galli” value in the data set on Echinochloa crus-galli [7] and in the data set with Echinochloa crus-galli [11] was 90% each time. Besides, the “weed suppression rate, Monochoria vaginalis” value in the data set with Monochoria vaginalis [8] and in the data set with Monochoria vaginalis [12] was 80% in each case.
For `Cc1ccc(N(C(=O)n2ncn(S(=O)(=O)N(C)C)c2=O)C(C)C)c(F)c1` [Compound 1-1117], the “herbicidal effect … Chenopodium album” value with Chenopodium album [13] and in the data set on Chenopodium album [1] was 80% throughout. The “herbicidal effect … Amaranthus viridis” value in the data set on Amaranthus viridis [14] and with Amaranthus viridis [2] was 90% in each case. Further, the “herbicidal effect … Crabgrass” value with crabgrass [15] and in the data set on crabgrass [3] was 90% each time. The “herbicidal effect … Echinochloa crus-galli” value with Echinochloa crus-galli [16] and in the data set on Echinochloa crus-galli [4] was 80% each time. The “weed suppression rate, Scirpus juncoides” value with Scirpus juncoides [5] and with Scirpus juncoides [9] was 90% throughout. Besides, the “weed suppression rate, Lindemia pyxidaria” value with Lindernia pyxidaria [6] and in the data set on Lindernia pyxidaria [10] was 80% throughout. Moreover, the “weed suppression rate, Echinochloa crus-galli” value in the data set with Echinochloa crus-galli [7] and in the data set with Echinochloa crus-galli [11] was 90% each time. Besides, the “weed suppression rate, Monochoria vaginalis” value with Monochoria vaginalis [8] and with Monochoria vaginalis [12] was 80% throughout.

Usually melting point stands for the temperature of the solid-liquid transition.
